Source: ChEMBL document CHEMBL1201862, “PubChem BioAssay data set” (2004)
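Growth conditions: 96-well plates. Treatment: test compound, 48 hours, 5 concentrations. Analysis: linear interpolation between bracketing concentrations; unreached endpoints set to highest concentration. GI50 is the concentration that inhibits growth by half.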 Active and inactive are the calls of the source. Rule as the data show it: active = GI50 up to about 1.1 µM and inactive = higher.

Experiments:
Test in all cases: inhibition of tumour cell growth, NCI panel, 48 h
HT-29 = system: HT-29
MCF7 = system: MCF7
NCI-H23 = system: NCI-H23
SK-MEL-28 = system: SK-MEL-28
DU-145 = system: DU-145
M14 = system: M14
SN12C = system: SN12C
OVCAR-5 = system: OVCAR-5
SNB-19 = system: SNB-19
SNB-75 = system: SNB-75
OVCAR-3 = system: OVCAR-3
NCI-H226 = system: NCI-H226
OVCAR-8 = system: OVCAR-8
MDA-MB-435 = system: MDA-MB-435
NCI-H460 = system: NCI-H460
EKVX = system: EKVX
RPMI-8226 = system: RPMI-8226
UO-31 = system: UO-31
SR = system: SR
HCC 2998 = system: HCC 2998

Measured: GI50

C/C(=N/S(=O)(=O)c1ccc(Cl)c(Cl)c1)OCC(C)(C)C
inactive: HT-29 > 100 µM | MCF7 > 100 µM | NCI-H23 > 100 µM | SK-MEL-28 > 100 µM | DU-145 > 100 µM | M14 > 100 µM | SN12C > 100 µM | OVCAR-5 > 100 µM | SNB-19 > 100 µM | SNB-75 > 100 µM | OVCAR-3 > 100 µM | NCI-H226 > 100 µM | OVCAR-8 > 100 µM | MDA-MB-435 > 100 µM | NCI-H460 > 100 µM | EKVX > 100 µM | RPMI-8226 > 100 µM | UO-31 > 100 µM

CC(Cc1ccc(O)cn1)(NC(=O)c1ccccc1)C(=O)O (centres undefined)
inactive: SR > 100 µM | HT-29 > 100 µM | NCI-H23 > 100 µM | SK-MEL-28 > 100 µM | DU-145 > 100 µM | M14 > 100 µM | OVCAR-5 > 100 µM | SNB-19 > 100 µM | HCC 2998 > 100 µM | SNB-75 40.4 µM | OVCAR-3 > 100 µM | NCI-H226 > 100 µM | OVCAR-8 > 100 µM | MDA-MB-435 > 100 µM | NCI-H460 > 100 µM | EKVX > 100 µM | RPMI-8226 > 100 µM | UO-31 > 100 µM

COC(=O)C1(O)C(c2ccccc2)NC2(C)CCCC21 (centres undefined)
inactive: MCF7 > 100 µM | NCI-H23 > 100 µM | SK-MEL-28 > 100 µM | DU-145 > 100 µM | M14 > 100 µM | SN12C > 100 µM | SNB-19 > 100 µM | SNB-75 > 100 µM | NCI-H226 > 100 µM | OVCAR-8 > 100 µM | MDA-MB-435 > 100 µM | UO-31 > 100 µM

C[C@]12CC/C(=N\O)C=C1CC[C@@H]1[C@@H]2CC[C@]2(C)C(=N/O)/C(=C/c3cccnc3)C[C@@H]12
inactive: HT-29 19 µM | MCF7 6.97 µM | NCI-H23 32.6 µM | SK-MEL-28 16.9 µM | DU-145 21.8 µM | M14 16.5 µM | SN12C 12.2 µM | OVCAR-5 24.2 µM | SNB-19 23.4 µM | NCI-H226 3.63 µM | OVCAR-8 15.4 µM | MDA-MB-435 15.9 µM | NCI-H460 3.46 µM | EKVX 18.4 µM | RPMI-8226 1.74 µM | UO-31 4.9 µM

CC1=CC(=O)/C(=C/N2CCNC2=S)C(=O)O1
inactive: HT-29 > 100 µM | MCF7 > 100 µM | NCI-H23 > 100 µM | DU-145 > 100 µM | M14 > 100 µM | SN12C > 100 µM | OVCAR-5 > 100 µM | SNB-19 > 100 µM | HCC 2998 > 100 µM | SNB-75 89.7 µM | NCI-H226 > 100 µM | OVCAR-8 > 100 µM | MDA-MB-435 > 100 µM | NCI-H460 > 100 µM | EKVX > 100 µM | RPMI-8226 > 100 µM | UO-31 > 100 µM

CC(=O)OC(/C=C/c1ccccc1)=C(OC(C)C)/C1=C(\c2ccccc2)SCCCSC1=O
inactive: HT-29 > 100 µM | MCF7 36 µM | NCI-H23 > 100 µM | SK-MEL-28 > 100 µM | DU-145 > 100 µM | M14 > 100 µM | OVCAR-5 > 100 µM | SNB-19 > 100 µM | HCC 2998 > 100 µM | SNB-75 52.6 µM | OVCAR-3 > 100 µM | NCI-H226 > 100 µM | OVCAR-8 > 100 µM | MDA-MB-435 > 100 µM | NCI-H460 > 100 µM | EKVX 53.2 µM | RPMI-8226 35.6 µM | UO-31 > 100 µM

N#CCCCCC12C3C(=O)N(c4ccccc4)C(=O)C3ON1O[C@@H]1C(=O)N(c3ccccc3)C(=O)[C@@H]12 (some centres undefined)
inactive: HT-29 > 100 µM | MCF7 > 100 µM | NCI-H23 > 100 µM | SK-MEL-28 > 100 µM | DU-145 > 100 µM | M14 > 100 µM | SN12C > 100 µM | OVCAR-5 > 100 µM | SNB-19 > 100 µM | HCC 2998 > 100 µM | OVCAR-3 > 100 µM | NCI-H226 > 100 µM | OVCAR-8 > 100 µM | MDA-MB-435 > 100 µM | NCI-H460 > 100 µM | EKVX > 100 µM | UO-31 > 100 µM

CCOC(=O)C1(C/C=C/CBr)CCc2ccccc2C1=O (centres undefined)
inactive: HT-29 21.9 µM | MCF7 7.89 µM | NCI-H23 16.8 µM | SK-MEL-28 17.5 µM | DU-145 14 µM | M14 13.1 µM | SN12C 15.1 µM | OVCAR-5 29 µM | SNB-19 14.4 µM | SNB-75 10.4 µM | NCI-H226 6.95 µM | OVCAR-8 15.7 µM | MDA-MB-435 14.3 µM | EKVX 27.5 µM | UO-31 14.3 µM

COc1c(-c2ccc3c(c2)OCO3)oc2cc3c(c(OC)c2c1=O)OCO3 [MELITERNATIN]
inactive: HT-29 23.3 µM | MCF7 18.4 µM | NCI-H23 22.8 µM | SK-MEL-28 38.1 µM | DU-145 30.5 µM | M14 26.2 µM | SN12C 16 µM | OVCAR-5 29.8 µM | SNB-19 18.4 µM | HCC 2998 26.9 µM | SNB-75 16.3 µM | OVCAR-3 22.4 µM | NCI-H226 18.7 µM | OVCAR-8 19.1 µM | MDA-MB-435 17.6 µM | NCI-H460 14.4 µM | EKVX 24.5 µM | UO-31 23 µM
